# PubChem BioAssay AID328 (DTP/NCI, 2004)
# Values joined by “and” are separate entries in the source; they are usually repeats but may differ in a detail not shown here. Equal entries are not always repeated. Toxic doses and inconclusive results are not listed.
# System: BDF1 mice, P388 leukemia ip, median survival T/C
# Experiment: NCI In Vivo Anticancer Drug Screen. Data for tumor model P388 Leukemia (intraperitoneal) in B6D2F1 (BDF1) mice
# Settings: endpoint: median survival time, higher = longer survival
# Summary of the method: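 Vehicle-dosed animals serve as the reference; survival of compound-dosed, tumour-implanted mice is divided by it.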
# [1] = dose: 100.0 mg/kg/injection, schedule: Q01DX009 (ip), vehicle: Klucel (hydroxypropylcellulose) (HPC)
# [2] = dose: 50.0 mg/kg/injection, schedule: Q01DX009 (ip), vehicle: saline with Tween-80
# [3] = dose: 100.0 mg/kg/injection, schedule: Q01DX009 (ip), vehicle: saline with Tween-80
# [4] = dose: 200.0 mg/kg/injection, schedule: Q01DX009 (ip), vehicle: saline with Tween-80
# [5] = dose: 50.0 mg/kg/injection, schedule: Q04DX003 (ip), vehicle: saline with Tween-80
# [6] = dose: 100.0 mg/kg/injection, schedule: Q04DX003 (ip), vehicle: saline with Tween-80
# [7] = dose: 200.0 mg/kg/injection, schedule: Q04DX003 (ip), vehicle: saline with Tween-80
structure (smiles),measurement,setting,value
CCCNC(=O)NO,T/C,[1],119 % of control
same,T/C,"dose: 100.0 mg/kg/injection, schedule: Q04DX003 (ip), vehicle: other",87 % of control
same,T/C,"dose: 200.0 mg/kg/injection, schedule: Q01DX009 (ip), vehicle: Klucel (hydroxypropylcellulose) (HPC)",104 % of control
same,T/C,"dose: 200.0 mg/kg/injection, schedule: Q04DX003 (ip), vehicle: other",104 % of control
same,T/C,"dose: 400.0 mg/kg/injection, schedule: Q01DX009 (ip), vehicle: Klucel (hydroxypropylcellulose) (HPC)",114 % of control
same,T/C,"dose: 400.0 mg/kg/injection, schedule: Q04DX003 (ip), vehicle: other",104 % of control
C1O[C@@H]1[C@H]1CO1,T/C,"dose: 25.0 mg/kg/injection, schedule: Q01DX009 (ip), vehicle: saline",150 % of control
same,T/C,"dose: 37.5 mg/kg/injection, schedule: Q01DX009 (ip), vehicle: saline",186 % of control
CC(C)=CCc1c(O)ccc(C(=O)/C=C/c2ccccc2)c1O,T/C,"dose: 3.12 mg/kg/injection, schedule: Q01DX009 (ip), vehicle: Klucel (hydroxypropylcellulose) (HPC)",102 % of control
same,T/C,"dose: 6.25 mg/kg/injection, schedule: Q01DX009 (ip), vehicle: Klucel (hydroxypropylcellulose) (HPC)",106 % of control
same,T/C,"dose: 12.5 mg/kg/injection, schedule: Q01DX009 (ip), vehicle: Klucel (hydroxypropylcellulose) (HPC)",116 % of control
same,T/C,"dose: 25.0 mg/kg/injection, schedule: Q01DX009 (ip), vehicle: Klucel (hydroxypropylcellulose) (HPC)",100 % of control
same,T/C,"dose: 50.0 mg/kg/injection, schedule: Q01DX009 (ip), vehicle: Klucel (hydroxypropylcellulose) (HPC)",90 % of control
same,T/C,[1],90 % of control
O=C(NCc1cnccn1)c1ccc([N+](=O)[O-])cc1,T/C,[2],100 % of control
same,T/C,[3],94 % of control
same,T/C,[4],100 % of control
same,T/C,"dose: 400.0 mg/kg/injection, schedule: Q01DX009 (ip), vehicle: saline with Tween-80",103 % of control
O=C(c1ccccc1)C(SC(C(=O)c1ccccc1)c1ccccc1)c1ccccc1 (stereo not given),T/C,[2],98 % of control
same,T/C,[3],97 % of control
same,T/C,[4],91 % of control
COC(=O)CCC1(c2ccccc2)CCCC1=O (stereo not given),T/C,"dose: 12.5 mg/kg/injection, schedule: Q01DX009 (ip), vehicle: water",103 % of control
same,T/C,"dose: 25.0 mg/kg/injection, schedule: Q01DX009 (ip), vehicle: water",92 % of control
same,T/C,"dose: 100.0 mg/kg/injection, schedule: Q01DX009 (ip), vehicle: water",94 % of control
same,T/C,"dose: 200.0 mg/kg/injection, schedule: Q04DX003 (ip), vehicle: water",96 % of control
same,T/C,"dose: 300.0 mg/kg/injection, schedule: Q04DX003 (ip), vehicle: water",100 % of control
same,T/C,"dose: 400.0 mg/kg/injection, schedule: Q04DX003 (ip), vehicle: water",91 % of control
O=C1c2ccccc2C(=O)c2cc(S(=O)(=O)Cl)ccc21,T/C,"dose: 100.0 mg/kg/injection, schedule: Q01DX001 (ip), vehicle: saline",109 % of control
same,T/C,"dose: 200.0 mg/kg/injection, schedule: Q01DX001 (ip), vehicle: saline",109 % of control
same,T/C,"dose: 400.0 mg/kg/injection, schedule: Q01DX001 (ip), vehicle: saline",90 % of control
OCCCN1CCCCC1CO (stereo not given),T/C,"dose: 200.0 mg/kg/injection, schedule: Q01DX009 (ip), vehicle: saline",165 % of control
[O-][n+]1ccc(Cl)c2ccsc21,T/C,[5],95 % of control
same,T/C,[6],95 % of control
same,T/C,[7],90 % of control and 104 % of control
same,T/C,"dose: 400.0 mg/kg/injection, schedule: Q04DX003 (ip), vehicle: saline with Tween-80",86 % of control
O=Cc1cc([N+](=O)[O-])ccc1Cl,T/C,[5],100 % of control
same,T/C,[6],96 % of control
same,T/C,[7],100 % of control
CC[C@@]1(O)C[C@H](OC2CC(N(C)C)C(OC3CC(O)C(OC4CCC(=O)C(C)O4)C(C)O3)C(C)O2)c2c(cc3c(c2O)C(=O)c2c(O)ccc(O)c2C3=O)[C@H]1C(=O)OC (stereo not given in full),T/C,"dose: 0.39 mg/kg/injection, schedule: Q01DX009 (ip), vehicle: water",111 % of control
same,T/C,"dose: 0.5 mg/kg/injection, schedule: Q01DX003 (ip), vehicle: saline",163 % of control
same,T/C,"dose: 0.5 mg/kg/injection, schedule: Q01DX009 (ip), vehicle: water",117 % of control
same,T/C,"dose: 0.65 mg/kg/injection, schedule: Q01DX009 (ip), vehicle: water",152 % of control
same,T/C,"dose: 0.75 mg/kg/injection, schedule: Q01DX010 (ip), vehicle: saline",170 % of control
same,T/C,"dose: 1.0 mg/kg/injection, schedule: Q01DX003 (ip), vehicle: saline",190 % of control
same,T/C,"dose: 1.0 mg/kg/injection, schedule: Q01DX009 (ip), vehicle: saline",154 % of control
same,T/C,"dose: 1.0 mg/kg/injection, schedule: Q01DX009 (ip), vehicle: water",86 % of control
same,T/C,"dose: 1.0 mg/kg/injection, schedule: Q04DX003 (ip), vehicle: water",102 % of control
same,T/C,"dose: 1.08 mg/kg/injection, schedule: Q01DX009 (ip), vehicle: water",177 % of control and 180 % of control
same,T/C,"dose: 1.5 mg/kg/injection, schedule: Q01DX010 (ip), vehicle: saline",175 % of control
same,T/C,"dose: 1.73 mg/kg/injection, schedule: Q04DX003 (ip), vehicle: other",155 % of control
same,T/C,"dose: 1.8 mg/kg/injection, schedule: Q01DX009 (ip), vehicle: water",225 % of control and 200 % of control
same,T/C,"dose: 2.0 mg/kg/injection, schedule: Q01DX003 (ip), vehicle: saline",109 % of control
same,T/C,"dose: 2.0 mg/kg/injection, schedule: Q01DX009 (ip), vehicle: saline",191 % of control
same,T/C,"dose: 2.0 mg/kg/injection, schedule: Q01DX009 (ip), vehicle: water",90 % of control
same,T/C,"dose: 2.0 mg/kg/injection, schedule: Q04DX003 (ip), vehicle: water",119 % of control
same,T/C,"dose: 2.88 mg/kg/injection, schedule: Q04DX003 (ip), vehicle: other",186 % of control
same,T/C,"dose: 3.0 mg/kg/injection, schedule: Q01DX010 (ip), vehicle: saline",90 % of control
same,T/C,"dose: 4.8 mg/kg/injection, schedule: Q04DX003 (ip), vehicle: other",109 % of control
same,T/C,"dose: 5.0 mg/kg/injection, schedule: Q04DX003 (ip), vehicle: water",203 % of control
same,T/C,"dose: 8.44 mg/kg/injection, schedule: Q01DX001 (ip), vehicle: water",158 % of control
same,T/C,"dose: 10.0 mg/kg/injection, schedule: Q04DX003 (ip), vehicle: water",88 % of control
same,T/C,"dose: 11.25 mg/kg/injection, schedule: Q01DX001 (ip), vehicle: water",152 % of control
same,T/C,"dose: 13.33 mg/kg/injection, schedule: Q04DX003 (ip), vehicle: water",117 % of control
same,T/C,"dose: 15.0 mg/kg/injection, schedule: Q01DX001 (ip), vehicle: water",100 % of control
same,T/C,"dose: 20.0 mg/kg/injection, schedule: Q01DX001 (ip), vehicle: water",50 % of control
